This passage reports TGI and GI50 results from PubChem BioAssay (NCI).

Holding throughout (assay): NCI tumour cell line growth inhibition, 48 h
The test system of assay [1] is DU-145 prostate.
Assay [2] has as its system SF-295 CNS.
In assay [3] the test system is RXF 393 renal.
Assay [4] concerns SNB-75 CNS.
Assay [5] deals with DMS 114 small cell lung.
In assay [6] the test system is DLD-1 colon.
Assay [7] relates to HOP-18 NSCLC.
The subject of assay [8] is M19-MEL melanoma.
The subject of assay [9] is LXFL 529 NSCLC.
Assay [10] concerns KM20L2 colon.
In assay [11] the test system is SNB-78 CNS.
Assay [12] concerns XF 498 CNS.
The subject of assay [13] is DMS 273 small cell lung.
In assay [14] the test system is P388/ADR leukemia.

Structures are written as SMILES. Where “and” joins values, the source holds several entries; their conditions need not be identical. Equal values may be shown once.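 Tested at 5 concentrations; 48 h exposure; 96-well plates; endpoints linearly interpolated, else capped at highest concentration. At the GI50, growth is halved. TGI is the concentration that stops growth completely.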 Where a SMILES comes first, the peptide text is derived from it. The star is where a group is joined. Boc = CC(C)(C)OC(=O)*; nBu = CCCC* Some results are limits rather than exact numbers.

With `CCOc1nc2c(N3CCCC3)nc(N3CCNCC3)nc2nc1NCc1ccccc1`, the TGI in assay [1] was determined as 6.84 µM; in assay [2] it was 3.37 µM; in assay [3], 2.29 µM; in assay [4], 2.46 µM.

In the case of `Cc1c(-c2ccccc2)[nH]c2cn[nH]c(=O)c12`, the TGI in assay [1] and in assay [2] was greater than 100 µM each time.

On to `C#C[C@]1(O)CC[C@H]2[C@@H]3CCc4cc(O)ccc4[C@H]3CC[C@@]21C`, for which the TGI in [5] was greater than 100 µM; in assay [6] it was 60.7 µM; in assay [7] it was greater than 100 µM; in assay [2], 74.8 µM; in assay [3], 62.2 µM; in assay [8] it was 57.2 µM. Also, the TGI was greater than 100 µM in [9]; 38.9 µM in [10]; greater than 100 µM in assay [11]; 42.8 µM in [4]; 98 µM in assay [12].

For `C[C@@H]1CC[C@@H]2[C@@H](C1)O[C@@H]([C@@H](C)OCc1ccccc1)SC2(C)C`, the TGI in assay [1] was greater than 100 µM; in [2] it was 31.2 µM; in [3], 30.7 µM; in [4], 34 µM.

On to `C/C(C=O)=C/[C@@]1(C)O[C@@H](C)[C@@](C)(O)[C@@H]1O`, for which the TGI in [1], in assay [2] and in [3] was greater than 100 µM each time.

Take `CC(=O)Nc1cccc(N2C(=O)/C(=C\c3cccc(Oc4ccccc4)c3)SC2c2ccccc2)c1` (stereo unspecified): the TGI in assay [1], in assay [2] and in assay [3] was greater than 100 µM each time.

For the compound `COC(=O)c1c(O)ccc2c1c1cc3ccccc3c(O)c1n2CCc1ccc(OC)c(OC)c1`, the TGI in assay [1], in assay [2] and in [3] was greater than 100 µM each time.

Regarding `CC(C)CC(N)C(=O)NC(C(=O)NC(CCCNC(=N)N)C(=O)NC(CS)C(=O)NC1CSCC(C(=O)NC(Cc2ccccc2)C(=O)NC(C(=O)NC(CCCNC(=N)N)C(=O)O)C(C)C)NC(=O)C2CCCN2C(=O)C(CCCCN)NC(=O)C2CCCN2C(=O)C2CCCN2C(=O)C(Cc2ccc(O)cc2)NC(=O)C(CO)NC(=O)C(CCCCN)NC(=O)C(C(C)O)NC(=O)C(Cc2c[nH]c3ccccc23)NC1=O)C(C)C` (stereo unspecified), the TGI in assay [1] and in assay [2] was greater than 25 µM throughout.

As to `CCc1n[nH]c(=O)n1/N=C(\C)c1ccccc1`, the TGI in assay [1], in assay [2] and in assay [3] was greater than 100 µM in each case.

As for `O=C(Nc1ccccc1)Oc1ccc(C(=S)Nc2ccc(Br)cc2)cc1`, the TGI in [1] was 81.8 µM; in [2], 84.3 µM.

Consider `CCCCOc1ccc(CC(NC(=O)OC(C)(C)C)C(=O)NC(C)C(=O)NC(Cc2ccccc2)C(=O)NCC(N)=O)cc1` (stereo unspecified) (Boc-Y(nBu)AFG-NH2; configuration not given here), for which the TGI in assay [1], in [2], in assay [3] and in assay [4] was greater than 100 µM in each case.

With `CN1CCC(C(O)(c2ccccc2)c2ccc(Br)cc2)CC1` (stereo unspecified), the TGI was greater than 100 µM in assay [1], 45.7 µM in assay [2], 64.4 µM in assay [3] and 91.5 µM in [4].

On to `CC(Oc1ccc(Cl)cc1Cl)C(=O)NN1C(=O)CC(=O)N(c2ccccc2)C1=S` (stereo unspecified), for which the TGI in [1], in assay [2], in [3] and in [4] was greater than 100 µM throughout.

As to `CN(CCc1ccccn1)c1ccc2c(c1)C(=O)c1ccccc1-2`, the TGI in [1], in assay [2], in assay [3] and in [4] was greater than 100 µM in each case.

On to `COC(=O)/C=C\C(C#N)(C#N)N=Cc1ccc(OC)cc1`, for which the TGI in assay [1] worked out at 17 µM; in assay [2], 53 µM; in [3], 5.42 µM; in assay [4] it was 34.2 µM.

Take `C=C1C(O)C2(O)OCC34C(CC5C(C)=CC(=O)C(O)C5(C)C23)OC(=O)C(OC(=O)C/C=C/CCCCCCCC)C14` (stereo unspecified): the TGI in assay [5] is 0.0205 µM; in [13], 0.0964 µM; in assay [6], 0.0287 µM; in assay [7] it was 1.1 µM; in assay [14], 0.278 µM; in assay [3], 0.0211 µM. Further, the TGI came to 0.0244 µM in [8]; 0.31 µM in [10]; 0.057 µM in assay [11]; 0.0667 µM in assay [4]; 0.0351 µM in [12].

`O=C(Cc1nc2ccccc2[nH]c1=O)c1c[nH]c2ccccc12`: the TGI in assay [1] was greater than 100 µM; in [2], 35 µM; in assay [3], 46.1 µM; in [4], greater than 100 µM.

Regarding `COC(=O)c1c(O)ccc2c1c1c(n2Cc2cc(OC)cc(OC)c2)C(=O)c2ccccc2C1=O`, the TGI in assay [1] came out at 71.9 µM; in [2], 32.7 µM; in assay [3], 45.6 µM; in [4], 58.7 µM.

On to `CCCCCCCCCCCCCCCc1nc(=S)[nH][nH]1`, for which the TGI in assay [5], in assay [3], in assay [8], in assay [9], in assay [11] and in [4] was greater than 100 µM in each case. The same compound yielded a TGI in assay [12] greater than 100 µM.

`COc1ccc2nc3cc(Cl)ccc3c(NCCCN3CCN(CCCNc4ccc5nnn6c7ccccc7c(=O)c4c56)CC3)c2c1`: the TGI is greater than 25 µM in assay [1], greater than 25 µM in [2], 6.25 µM in assay [3] and greater than 25 µM in [4].

With `COc1cc(C2S/C(=C/c3ccccc3)C(=O)N2c2cccc(NC(C)=O)c2)cc(OC)c1OC` (stereo unspecified), the TGI in assay [2] is greater than 100 µM; in [3], greater than 100 µM; in assay [4] it was 28 µM.

Consider `CC1(C)OC[C@@H]([C@@]2(COC(c3ccccc3)(c3ccccc3)c3ccccc3)CC=CC(=O)O2)O1`, for which the TGI in assay [1] was greater than 100 µM; in assay [2] it was greater than 100 µM; in assay [3], 69.5 µM; in assay [4], 59.3 µM.

On to `O=c1c2cc(O)ccc2n2nnc3ccc(NCCNCCO)c1c32`, for which the TGI in assay [5] is 14.8 µM and 9.51 µM; in assay [13] it was greater than 59.3 µM; in assay [6] it was > 100 µM and 40.7 µM; in assay [7], > 100 µM and 69.1 µM; in [2], > 45.5 µM and 35.2 µM; in [3] it was 14.4 µM and 9.34 µM. In addition, the TGI in assay [8] is 20.7 µM and 12.1 µM; in assay [9] it was 18.1 µM and 13 µM; in [10], > 100 µM and 44.9 µM; in assay [11], > 55.9 µM and 14.4 µM; in assay [4], 17 µM and 18.3 µM; in assay [12], 12.4 µM. In addition, the GI50 in [6] is 23.9 µM and 6.6 µM; in assay [3] it was 3.26 µM and 1.15 µM; in assay [8], 6.8 µM and 2.68 µM; in assay [10], 27.1 µM and 13.4 µM; in [11], 4.78 µM and 2.11 µM; in assay [4], 2.68 µM and 5.5 µM.

Regarding `CC(Oc1ccccc1Cl)C(=O)NN1C(=O)CC(=O)N(c2ccc(Cl)cc2)C1=S` (stereo unspecified), the TGI is greater than 100 µM in [1], greater than 100 µM in [2], 90.4 µM in assay [3] and greater than 100 µM in assay [4].

As for `Cc1ccc(-c2cc(-c3ccc(Cl)cc3)nc(/N=C3\C(=O)N(CN(C)C)c4ccccc43)n2)cc1`, the TGI in assay [1] is 97.8 µM; in assay [2], greater than 100 µM; in assay [3], 63.9 µM; in assay [4] it was greater than 100 µM.

Turning to `O=C(O)c1cc2ccccc2c(N=Nc2ccc(S(=O)(=O)Nc3ncccn3)cc2)c1O`, the TGI in [2], in assay [3] and in assay [4] was greater than 100 µM in each case.

With `Nc1nc(SCC(=O)c2ccc(Br)cc2)c2[nH]cnc2n1`, the TGI in assay [1] is greater than 100 µM; in [2], greater than 100 µM; in assay [3], greater than 100 µM; in assay [4] it was 73 µM.

Turning to `COc1ccccc1-c1c(C#N)c(N)[nH]c(=S)c1C#N`, the TGI in assay [1], in [2] and in assay [3] was greater than 100 µM each time.

In the case of `Oc1ccccc1C=Nc1ccc(-c2nc3ccccc3s2)cc1`, the TGI in assay [1] was greater than 100 µM; in assay [2], 55.9 µM; in [3], greater than 100 µM; in assay [4], 99.3 µM.

Take `COc1ccc(C2C3CCc4ccccc4C3=NN2S(=O)(=O)c2cccc(C(=O)O)c2OC)cc1` (stereo unspecified): the TGI in [1] is greater than 100 µM; in [2], 35.1 µM; in assay [3] it was 62 µM.

Consider `CC1=NN(c2nc(N)nc(/C(C#N)=C\c3ccc(-c4ccc([N+](=O)[O-])cc4)o3)n2)C(C)(C)C1`, for which the TGI in [1] was greater than 100 µM; in [2], greater than 100 µM; in assay [3], greater than 100 µM; in assay [4] it was 51.6 µM.
